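Assay format: 96-well plates, 48-hour exposure. GI50 marks 50% less growth.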 Calls of active or inactive are those of the source. Rule as the data show it: active = GI50 up to about 1.1 µM and inactive = higher.
Assays:
Test in all cases: inhibition of tumour cell growth, NCI panel, 48 h
[1] = system: NCI-H522
[2] = system: U-251
[3] = system: Malme-3M
[4] = system: HT-29
[5] = system: A549
[6] = system: SF-268
[7] = system: OVCAR-4
[8] = system: HCT-15
[9] = system: T47D
[10] = system: OVCAR-5
[11] = system: 786-0
[12] = system: HOP-62
[13] = system: HCT-116
[14] = system: A498
[15] = system: UACC-257
[16] = system: EKVX
[17] = system: SK-MEL-2
[18] = system: RPMI-8226
[19] = system: RXF 393

Measured: GI50

O=[N+]([O-])c1ccc(NN=C2CN3CCN(C2)c2ccccc23)c([N+](=O)[O-])c1
> 100 µM: [8]
inactive: [1] > 100 µM | [2] > 100 µM | [3] > 100 µM | [4] > 100 µM | [5] > 100 µM | [6] > 100 µM | [7] > 100 µM | [9] > 100 µM | [10] > 100 µM | [11] > 100 µM | [12] > 100 µM | [13] > 100 µM | [14] > 100 µM | [15] > 100 µM | [16] 40.6 µM

N=c1c2ccccc2nc2oc3ccccc3n12
inactive: [3] 41.1 µM | [17] 37.5 µM | [4] > 100 µM | [5] 33.8 µM | [6] 14.9 µM | [7] 29 µM | [10] 45.3 µM | [11] > 10 µM | [12] 23.2 µM | [13] 36.6 µM | [14] 38.7 µM | [15] 68.1 µM | [18] > 100 µM | [16] 1.91 µM
> 100 µM: [8]

Cc1ccc(Nc2c3c(c(C#N)c4nc5ccccc5n24)CCCC3)cc1
16.9 µM: [8]
inactive: [1] 14.3 µM | [2] 17.5 µM | [3] 30.7 µM | [17] 13.1 µM | [4] 13.6 µM | [5] 12.5 µM | [6] > 100 µM | [7] 20.7 µM | [9] 13.7 µM | [10] 34 µM | [11] 26.7 µM | [13] 10.9 µM | [15] 17.7 µM | [16] 17.3 µM

COc1cc(OC)cc(OCc2nc3cc(C(F)(F)F)ccc3nc2-c2ccccc2)c1
inactive: [1] > 100 µM | [2] > 100 µM | [3] > 100 µM | [17] > 100 µM | [4] 29.4 µM | [5] > 100 µM | [6] > 100 µM | [7] > 100 µM | [9] 48 µM | [19] > 100 µM | [10] > 100 µM | [11] > 100 µM | [12] > 100 µM | [13] > 100 µM | [15] > 100 µM | [18] > 100 µM | [16] 22.2 µM
> 100 µM: [8]

COc1ccc2c3c1O[C@H]1C(OC)C=CC4C(C2)N(Cc2cccs2)CCC341 (some centres undefined)
55.2 µM: [8]
inactive: [1] > 100 µM | [3] > 100 µM | [4] 69.7 µM | [5] 53.8 µM | [6] > 100 µM | [10] > 100 µM | [11] > 100 µM | [12] > 100 µM | [13] 49.2 µM | [15] 44.4 µM | [18] 62.1 µM | [16] 88.3 µM

CCNC1=Nc2ccc(Cl)cc2C(c2ccccc2)=NN1
16.9 µM: [8]
inactive: [1] 14.6 µM | [2] 20.5 µM | [3] 16.9 µM | [17] 16.7 µM | [4] 15.8 µM | [5] 35.7 µM | [6] 31.3 µM | [7] 31.6 µM | [19] 25.5 µM | [10] 21.8 µM | [11] 17.8 µM | [12] 24.6 µM | [14] 29.9 µM | [15] 18 µM | [18] 29 µM | [16] 45.9 µM

O=[N+]([O-])c1ccc(-c2csc3nc(-c4ccccc4)nn23)cc1
> 100 µM: [8]
inactive: [1] > 100 µM | [2] 39.8 µM | [3] > 100 µM | [17] > 100 µM | [4] > 100 µM | [5] > 100 µM | [6] 82 µM | [7] > 100 µM | [19] 40.8 µM | [10] > 100 µM | [11] 98.2 µM | [12] 43.9 µM | [13] > 100 µM | [14] > 100 µM | [15] > 100 µM | [18] > 100 µM | [16] > 100 µM

COc1ccc2c(c1)-c1c(c3ccccc3n1CCN1CCOCC1)CC2
inactive: [1] 15.3 µM | [2] 26 µM | [3] 14.6 µM | [17] 11 µM | [4] 13.1 µM | [5] 27.1 µM | [6] 19 µM | [7] 56.6 µM | [9] 21.5 µM | [10] 35.2 µM | [11] 22.6 µM | [12] 20.1 µM | [13] 22.4 µM | [15] 36.7 µM | [18] 19.4 µM | [16] 16.4 µM
25.9 µM: [8]

CNc1ccc(C(=O)CC(O)CCC(C)C2OC(=O)CC(O)CC(=O)CC(O)CC(O)CC(O)CC(O)CC3(O)CC(O)C(C(=O)N4CCOCC4)C(CC(OC4OC(C)C(O)C(N)C4O)\C=C/C=C\C=C/C=C/C=C/C=C\C=C/C2C)O3)cc1 (centres undefined)
0.308 µM: [8]
active: [1] 0.244 µM | [2] 0.243 µM | [3] 0.137 µM | [17] 0.421 µM | [4] 0.232 µM | [5] 0.275 µM | [6] 0.218 µM | [7] 0.228 µM | [19] 0.318 µM | [10] 0.607 µM | [11] 0.325 µM | [12] 0.351 µM | [13] 0.504 µM | [14] 0.147 µM | [15] 0.185 µM | [18] 0.259 µM

O=P(O)(O)C(N=C(Nc1ccccc1)Nc1ccccc1)P(=O)(O)O
inactive: [1] > 100 µM | [3] > 100 µM | [4] > 100 µM | [5] > 100 µM | [6] > 100 µM | [19] > 100 µM | [10] > 100 µM | [11] > 100 µM | [12] > 100 µM | [13] > 100 µM | [15] > 100 µM | [16] > 100 µM
> 100 µM: [8]

COc1cc(C23OCC(Cc4cc5c(cc42)OCO5)C3CO)cc(OC)c1OC (centres undefined)
0.538 µM: [8]
inactive: [1] 2.22 µM | [2] 2.94 µM | [3] 6.14 µM | [17] 3.24 µM | [4] 5.64 µM | [5] 3.48 µM | [6] 4.82 µM | [7] 41.1 µM | [19] 2.02 µM | [10] 6.81 µM | [11] 3.09 µM | [12] 4.34 µM | [13] 2.89 µM | [14] 5.61 µM | [15] > 100 µM | [16] > 100 µM

CC1(c2nc3cc(Cl)c(Cl)cc3[nH]2)CCC(C(=O)O)C(C)(C)O1 (centres undefined)
inactive: [1] > 100 µM | [2] > 100 µM | [3] > 100 µM | [17] > 100 µM | [4] > 100 µM | [5] > 100 µM | [6] > 100 µM | [7] 78.9 µM | [9] > 100 µM | [19] > 100 µM | [10] > 100 µM | [11] > 100 µM | [12] > 100 µM | [13] > 100 µM | [15] > 100 µM | [18] > 100 µM | [16] > 100 µM
> 100 µM: [8]

CN(/N=C/C=N/N(C)C1=NCCCN1)C1=NCCCN1
inactive: [1] > 100 µM | [2] > 100 µM | [3] > 100 µM | [4] > 100 µM | [5] > 100 µM | [6] > 100 µM | [7] > 100 µM | [19] > 100 µM | [10] > 100 µM | [11] > 100 µM | [12] > 100 µM | [13] > 100 µM | [15] > 100 µM | [16] > 100 µM
> 100 µM: [8]
